According to ChEMBL document CHEMBL4483862, “Open-source discovery of chemical leads for next-generation chemoprotective antimalarials” (2018):

System: Plasmodium berghei
Assay: Luciferase/luciferin-expressing antifolate-resistant parasites were used to infect a culture of HepG2 cells that were pre-incubated with compounds. Infected hepatocytes emit light due to the luciferase reaction. Assay results are presented as the percent inhibition of light emission compared to control. […]
Format: functional
Conditions: sporozoite; for IC90: read-out: LUCIFERASE INFECTION ASSAY - IC90
[1] = read-out: LUCIFERASE INFECTION ASSAY - IC50

Row | SMILES | IC90 [µM] | further results
1 | CCN1C(=Cc2cc(C)[n+](CCCN3CCOCC3)c(C)c2)Sc2ccccc21 | 5.67 | IC50 (HEPG2TOX_HILL_SLOPE 1.6, HEPG2TOX_R_SQUARED 0.978, PBLUC_HILL_SLOPE 2.92, PBLUC_R_SQUARED 0.557, read-out: LUCIFERASE INFECTION ASSAY - IC50): 2.67 µM
2 | Cc1noc(C)c1COc1cccc(C(=O)OCC(=O)N2CC(=O)Nc3ccccc32)c1 | > 10 | IC50 (HEPG2TOX_HILL_SLOPE 1.25, HEPG2TOX_R_SQUARED 0.939, PBLUC_HILL_SLOPE 2.73, PBLUC_R_SQUARED 0.35, read-out: LUCIFERASE INFECTION ASSAY - IC50): 6.68 µM
3 | COCOc1ccc(-c2cc(-c3ccc(OC)c(OC)c3)cnc2N)cc1 | > 9.01 | IC50 (PBLUC_HILL_SLOPE 4.72, PBLUC_R_SQUARED 0.371, read-out: LUCIFERASE INFECTION ASSAY - IC50): 7.27 µM
4 | CCNC(=O)CNC(=O)c1ccc(C(C)(C)C)cc1 | > 10 | IC50 [1]: > 10 µM
5 | N#CC(C(=O)c1ccc(Br)s1)c1nc2ccccc2s1 (configuration not stated) | 3.8 | IC50 (HEPG2TOX_HILL_SLOPE 2.2, HEPG2TOX_R_SQUARED 0.729, PBLUC_HILL_SLOPE 11.3, 11.3, PBLUC_R_SQUARED 0.872, 0.879, read-out: LUCIFERASE INFECTION ASSAY - IC50): 3.13 µM
6 | CCSc1nc2scc(C(F)(F)F)n2c(=O)c1C(=O)N1CC(C)CC(C)C1 (configuration not stated) | > 7.87 | IC50 [1]: > 7.87 µM
7 | CC(=O)N(C)c1cccc(-c2cc3c(Nc4cccc(C(C)C)c4)nccc3n2C)c1 | 3.76 | IC50 (PBLUC_HILL_SLOPE 18.8, PBLUC_R_SQUARED 0.545, read-out: LUCIFERASE INFECTION ASSAY - IC50): 3.34 µM
8 | Cc1ccc(-c2nnc(SCC(=O)N3N=C(c4ccc5ccccc5c4)CC3c3ccccc3)[nH]2)cc1 (configuration not stated) | > 10 | IC50 [1]: > 10 µM
9 | O=C1Nc2ccc([N+](=O)[O-])cc2/C1=N/NC(=S)NC1CCCCC1 | 3.82 | IC50 (HEPG2TOX_HILL_SLOPE 8.71, HEPG2TOX_R_SQUARED 0.815, PBLUC_HILL_SLOPE 16.7, PBLUC_R_SQUARED 0.29, read-out: LUCIFERASE INFECTION ASSAY - IC50): 3.35 µM
10 | CC(C)c1cc(C(=O)N2CCc3c(cc(-c4cccc(F)c4)c(=O)n3CCN3CCCCC3)C2)[nH]n1 | > 6.71 | IC50 (PBLUC_HILL_SLOPE 1.58, PBLUC_R_SQUARED 0.377, read-out: LUCIFERASE INFECTION ASSAY - IC50): 1.78 µM
11 | Nc1nc(CN2CCN(Cc3cccc4cccnc34)CC2)nc2ccccc12 | > 10 | IC50 [1]: > 10 µM
12 | O=C(c1ccc2cc[nH]c2c1)N1CCN(C/C=C/c2ccccc2)CC1 | 9.08 | IC50 [1]: 7.41 µM
13 | O=C(Nc1nc(C23CC4CC(CC(C4)C2)C3)cs1)c1cnccn1 | > 10 | IC50 (PBLUC_HILL_SLOPE 9.13, PBLUC_R_SQUARED 0.249, read-out: LUCIFERASE INFECTION ASSAY - IC50): 8.02 µM
14 | O=S(=O)(c1ccc(Cl)cc1)c1nc(/C=C/c2ccccc2)oc1NCc1ccco1 | 9.82 | IC50 (PBLUC_HILL_SLOPE 32.9, PBLUC_R_SQUARED 0.0875, read-out: LUCIFERASE INFECTION ASSAY - IC50): 9.18 µM
15 | CCc1c(C(=O)/C=C/c2cc(OC)c(O)c(OC)c2)oc2ccc(C)cc12 | 7.96 | IC50 (PBLUC_HILL_SLOPE 25.7, 54.1, PBLUC_R_SQUARED 0.301, 0.609, read-out: LUCIFERASE INFECTION ASSAY - IC50): 7.44 µM
16 | O=C(Cn1ncc(Cl)c(Cl)c1=O)NCC(=O)Nc1ccc(F)c(F)c1F | 6.18 | IC50 (HEPG2TOX_HILL_SLOPE 18.2, HEPG2TOX_R_SQUARED 0.93, PBLUC_HILL_SLOPE 2.22, PBLUC_R_SQUARED 0.782, read-out: LUCIFERASE INFECTION ASSAY - IC50): 2.3 µM
17 | N#CC1C(=N)Oc2c(ccc3ccccc23)C1c1ccc(Cl)cc1 (configuration not stated) | > 9.92 | IC50 [1]: > 9.92 µM
18 | N#Cc1ccc(C(=O)Nc2nc(-c3c[nH]c4ccccc34)cs2)cc1 | > 10 | IC50 (PBLUC_HILL_SLOPE 15.6, PBLUC_R_SQUARED 0.4, read-out: LUCIFERASE INFECTION ASSAY - IC50): 9.53 µM
19 | CCN(c1ccccc1)S(=O)(=O)c1ccc(Sc2ccc(C)cc2C)nc1 | > 10 | IC50 (HEPG2TOX_HILL_SLOPE 0.198, HEPG2TOX_R_SQUARED 0.716, PBLUC_HILL_SLOPE 11.9, PBLUC_R_SQUARED 0.0318, read-out: LUCIFERASE INFECTION ASSAY - IC50): 9.38 µM
20 | CCS(=O)(=O)c1ccc(O)c(NC(=O)Cc2csc(-c3ccsc3)n2)c1 | > 10 | IC50 [1]: > 10 µM
21 | CCCCN1C(=O)C(=O)N(CC(=O)Nc2sc(Cc3ccc4c(c3)OCO4)c(C)c2C(=O)OCC)C1=O | 0.0425 | IC50 (PBLUC_HILL_SLOPE 37.8, PBLUC_R_SQUARED 0.839, read-out: LUCIFERASE INFECTION ASSAY - IC50): 0.0401 µM

Row | SMILES | IC90 [µM] | further results
22 | N#Cc1ccc(/C=N/NC(=O)c2ccc(COc3ccccc3-c3ccccc3)cc2)cc1 | 9.24 | IC50 (FFLUC_HILL_SLOPE 15.4, FFLUC_R_SQUARED 0.374, HEPG2TOX_HILL_SLOPE 8.76, HEPG2TOX_R_SQUARED 0.561, PBLUC_HILL_SLOPE 30.2, PBLUC_R_SQUARED 0.437, read-out: LUCIFERASE INFECTION ASSAY - IC50): 8.6 µM
23 | CCOC(=O)c1c(NC(=O)C[n+]2ccc(Cc3ccccc3)cc2)sc(C)c1C | 8.6 | IC50 [1]: 3.79 µM
24 | CCn1c(=O)[nH]c(=O)c2cc(C(=O)Nc3ccc(Oc4ccccc4)cc3)cnc21 | > 10 | IC50 (PBLUC_HILL_SLOPE 2.4, PBLUC_R_SQUARED 0.0614, read-out: LUCIFERASE INFECTION ASSAY - IC50): 6.87 µM
25 | CN(C)CCNC(=O)c1ccc(-c2cn3c(-c4ccc5c(c4)OCO5)cnc3cn2)cc1 | > 7.68 | IC50 (PBLUC_HILL_SLOPE 12, PBLUC_R_SQUARED 0.209, read-out: LUCIFERASE INFECTION ASSAY - IC50): > 7.68 µM
26 | CC(C)c1ccc(NC(=O)Nc2csc(Cc3c(Cl)cccc3Cl)n2)cc1 | > 7.85 | IC50 [1]: > 7.85 µM
27 | COc1ccc(NCC2(c3ccnc(-c4ccccc4Cl)c3)CC2)cn1 | > 10 | IC50 (HEPG2TOX_HILL_SLOPE 2.53, HEPG2TOX_R_SQUARED 0.891, PBLUC_HILL_SLOPE 5.38, PBLUC_R_SQUARED 0.384, read-out: LUCIFERASE INFECTION ASSAY - IC50): 7.39 µM
28 | COc1ccc(-n2nnnc2SCC(=O)Nc2cc(-c3ccc(C)cc3)nn2-c2ccccc2)cc1 | > 10 | IC50 [1]: > 10 µM
29 | c1ccc2c(Sc3ncnc4sccc34)cccc2c1 | > 11.2 | IC50 (PBLUC_HILL_SLOPE 9.33, PBLUC_R_SQUARED 0.332, read-out: LUCIFERASE INFECTION ASSAY - IC50): > 11.2 µM
30 | OCc1ccc(-c2cn3c(-c4ccccc4)cnc3cn2)cc1 | > 11 | IC50 (HEPG2TOX_HILL_SLOPE 0.117, HEPG2TOX_R_SQUARED 0.27, read-out: LUCIFERASE INFECTION ASSAY - IC50): > 11 µM
31 | COc1ccc(Nc2nccc3[nH]c(-c4ccsc4)cc23)cc1OC | 7.38 | IC50 (HEPG2TOX_HILL_SLOPE 8.96, HEPG2TOX_R_SQUARED 0.789, PBLUC_HILL_SLOPE 2.87, PBLUC_R_SQUARED 0.796, read-out: LUCIFERASE INFECTION ASSAY - IC50): 3.43 µM
32 | C=C1S/C(=N\c2ccccc2OC)N(C(=O)c2c(-c3ccccc3Cl)noc2C)C12CCCCC2 | > 6.5 | IC50 (FFLUC_HILL_SLOPE 28.3, FFLUC_R_SQUARED 0.328, HEPG2TOX_HILL_SLOPE 0.898, HEPG2TOX_R_SQUARED 0.613, PBLUC_HILL_SLOPE 1.13, PBLUC_R_SQUARED 0.144, read-out: LUCIFERASE INFECTION ASSAY - IC50): 3.72 µM
33 | COc1cc(-c2cc(-c3ccc(F)c(Cl)c3)cnc2N)ccc1O | > 9.57 | IC50 (PBLUC_HILL_SLOPE 11.9, PBLUC_R_SQUARED 0.433, read-out: LUCIFERASE INFECTION ASSAY - IC50): 8.61 µM
34 | O=S(=O)(/N=C(\N/N=C/c1ccc(Cl)cc1)N1CCCC1)c1ccc(-n2nc(C(F)(F)F)cc2-c2cccs2)cc1 | > 5.44 | IC50 (FFLUC_HILL_SLOPE 13, FFLUC_R_SQUARED 0.6, read-out: LUCIFERASE INFECTION ASSAY - IC50): > 5.44 µM
35 | O=C(NCCCc1nc2ccccc2[nH]1)c1[nH]nc2ccccc12 | 1.48 | IC50 (HEPG2TOX_HILL_SLOPE 1.95, 1.49, HEPG2TOX_R_SQUARED 0.808, 0.974, PBLUC_HILL_SLOPE 11.3, 2.85, PBLUC_R_SQUARED 0.579, 0.589, read-out: LUCIFERASE INFECTION ASSAY - IC50): 0.947 µM
36 | CCn1c2ccccc2c2cc(Nc3cc(-c4cc(OC)c(OC)c(OC)c4)ncn3)ccc21 | 1.29 | IC50 (HEPG2TOX_HILL_SLOPE 1.37, HEPG2TOX_R_SQUARED 0.859, PBLUC_HILL_SLOPE 1.98, PBLUC_R_SQUARED 0.713, read-out: LUCIFERASE INFECTION ASSAY - IC50): 0.426 µM
37 | CC(C)(C)OC(=O)N1CCc2nc(NC(=O)c3csc(-c4ccco4)n3)sc2C1 | > 10 | IC50 (PBLUC_HILL_SLOPE 10.5, PBLUC_R_SQUARED 0.574, read-out: LUCIFERASE INFECTION ASSAY - IC50): 9.17 µM
38 | CC(C)NC(=O)c1c(NC(=O)c2cccc(Cl)c2Cl)nc2ccccn12 | > 8.43 | IC50 (PBLUC_HILL_SLOPE 29.4, PBLUC_R_SQUARED 0.349, read-out: LUCIFERASE INFECTION ASSAY - IC50): 7.83 µM
39 | O=C(c1[nH]c2ccccc2c1-c1ccccc1)N1CCOCC1 | 8.74 | IC50 (HEPG2TOX_HILL_SLOPE 1.63, HEPG2TOX_R_SQUARED 0.942, PBLUC_HILL_SLOPE 2.32, PBLUC_R_SQUARED 0.78, read-out: LUCIFERASE INFECTION ASSAY - IC50): 3.39 µM
40 | COc1cc(/C=C2/C(=O)N(C)c3ccccc32)cc(OC)c1 | > 10 | IC50 [1]: > 10 µM
41 | FC(F)(F)c1cccc(-c2ccc3nnc(-c4cccc(Cl)c4)n3c2)c1 | > 10 | IC50 [1]: > 10 µM
